Results published in ChEMBL document CHEMBL4765241, “Identification and Preclinical Pharmacology of ((1 R,3 S)-1-Amino-3-(( S)-6-(2-methoxyphenethyl)-5,6,7,8-tetrahydronaphthalen-2-yl)cyclopentyl)methanol (BMS-986166): A Differentiated Sphingosine-1-phosphate Receptor 1 (S1P) Modulator Advanced into Clinical Trials” (J Med Chem, 2019).

Assays:
Cytochrome P450 2C9 = Cytochrome P450 2C9 (Homo sapiens, UniProt P11712); test: Inhibition of CYP2C9 (unknown origin); type: ADME
[1] = Volume of distribution at steady state in Sprague-Dawley rat at 1 mg/kg, po or 1 mg/kg, iv; type: ADME, organism-based; settings: in vivo, read-out: Vdss
Cytochrome P450 2C8 = molecular target: T1, Cytochrome P450 2C8 (Homo sapiens, UniProt P10632); test: Inhibition of CYP2C8 (unknown origin); type: ADME
T1 sequence (P10632 whole entry): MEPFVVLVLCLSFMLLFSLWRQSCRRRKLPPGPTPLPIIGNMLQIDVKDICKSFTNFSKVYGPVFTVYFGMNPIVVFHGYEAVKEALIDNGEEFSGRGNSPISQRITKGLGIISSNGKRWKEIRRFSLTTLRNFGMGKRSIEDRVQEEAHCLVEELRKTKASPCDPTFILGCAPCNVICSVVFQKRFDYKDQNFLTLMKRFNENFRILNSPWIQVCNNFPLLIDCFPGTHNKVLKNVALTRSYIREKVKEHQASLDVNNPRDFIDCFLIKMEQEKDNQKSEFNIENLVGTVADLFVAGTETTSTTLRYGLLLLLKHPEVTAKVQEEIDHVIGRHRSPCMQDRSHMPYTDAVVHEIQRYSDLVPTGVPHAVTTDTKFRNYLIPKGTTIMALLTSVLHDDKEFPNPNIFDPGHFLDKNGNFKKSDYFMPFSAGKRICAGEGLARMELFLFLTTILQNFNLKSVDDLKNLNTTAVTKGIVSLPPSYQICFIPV

Cytochrome P450 2B6 = molecular target: T2, Cytochrome P450 2B6 (Homo sapiens, UniProt P20813); test: Inhibition of CYP2B6 (unknown origin); type: ADME
T2 sequence (P20813 whole entry): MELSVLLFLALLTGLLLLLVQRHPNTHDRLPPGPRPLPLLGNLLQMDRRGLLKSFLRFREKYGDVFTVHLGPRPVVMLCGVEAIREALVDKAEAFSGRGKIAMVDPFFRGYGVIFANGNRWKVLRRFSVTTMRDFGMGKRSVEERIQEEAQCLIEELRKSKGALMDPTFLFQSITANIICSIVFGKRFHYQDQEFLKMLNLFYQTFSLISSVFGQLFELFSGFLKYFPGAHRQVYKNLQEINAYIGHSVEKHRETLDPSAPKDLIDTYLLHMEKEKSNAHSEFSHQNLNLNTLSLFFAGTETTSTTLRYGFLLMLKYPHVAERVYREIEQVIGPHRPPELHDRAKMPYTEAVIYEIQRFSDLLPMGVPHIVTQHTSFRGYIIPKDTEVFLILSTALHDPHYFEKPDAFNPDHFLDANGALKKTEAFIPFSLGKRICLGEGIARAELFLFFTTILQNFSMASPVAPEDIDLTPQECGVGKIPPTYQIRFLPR

[2] = Clearance in Beagle dog at 1 mg/kg, iv; type: ADME, organism-based, Canis lupus familiaris; settings: in vivo
[3] = Protein binding in mouse assessed as bound fraction; type: ADME; settings: read-out: PB
Rattus norvegicus = test: Drug metabolism in Lewis rat blood assessed as concentration of phosphate ester metabolite formation at 2 mg/kg, po measured at 4 hrs by LC-MS/MS analysis; settings: in vivo
Cytochrome P450 2D6 = Cytochrome P450 2D6 (Homo sapiens, UniProt P10635); test: Inhibition of CYP2D6 (unknown origin); type: ADME
Mus musculus = test: Immunosuppressive activity in MOG (35 to 55 residues)/pertussis toxin-induced experimental autoimmune encephalomyelitis C57BL/6 mouse model assessed as reduction in clinical scores for inflammation administered orally once daily starting from day 1 post immunization and measured thrice weekly until day 24; type: functional, organism-based; settings: dose 0.1-0.5 mg/kg
[4] = Ratio of drug metabolism in Lewis rat blood assessed as phosphate ester metabolite to parent drug at 2 mg/kg, po measured at 24 hrs by LC-MS/MS analysis; type: ADME, organism-based; settings: in vivo
[5] = Tmax in Sprague-Dawley rat at 1 mg/kg, po or 1 mg/kg, iv; type: ADME, organism-based; settings: in vivo
[6] = Tmax in cynomolgus monkey at 1 mg/kg, po or 1 mg/kg, iv; type: ADME, organism-based, Macaca fascicularis; settings: in vivo
[7] = AUC ratio in orally dosed cynomolgus monkey blood assessed as phosphate metabolite to parent compound; type: ADME, organism-based, Macaca fascicularis; settings: in vivo, po
Cytochrome P450 3A4 = Cytochrome P450 3A4 (Homo sapiens, UniProt P08684); test: Inhibition of CYP3A4 (unknown origin); type: ADME
Sequence of Cytochrome P450 3A4 (P08684 whole entry): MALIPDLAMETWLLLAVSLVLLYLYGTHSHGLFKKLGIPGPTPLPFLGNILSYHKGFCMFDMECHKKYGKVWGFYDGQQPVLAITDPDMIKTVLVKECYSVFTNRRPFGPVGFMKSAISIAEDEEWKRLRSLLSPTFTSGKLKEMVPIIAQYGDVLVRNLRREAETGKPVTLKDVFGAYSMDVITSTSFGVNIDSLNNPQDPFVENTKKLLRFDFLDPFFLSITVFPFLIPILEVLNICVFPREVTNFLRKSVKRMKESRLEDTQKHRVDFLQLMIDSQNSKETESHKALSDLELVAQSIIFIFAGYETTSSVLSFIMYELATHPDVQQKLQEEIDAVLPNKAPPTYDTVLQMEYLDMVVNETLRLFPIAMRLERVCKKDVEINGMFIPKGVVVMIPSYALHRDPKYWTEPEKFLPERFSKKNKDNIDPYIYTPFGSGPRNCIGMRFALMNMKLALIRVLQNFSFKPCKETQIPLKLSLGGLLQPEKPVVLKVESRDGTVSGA

Sequence of Cytochrome P450 2D6 (P10635 whole entry, the tested form may be a part): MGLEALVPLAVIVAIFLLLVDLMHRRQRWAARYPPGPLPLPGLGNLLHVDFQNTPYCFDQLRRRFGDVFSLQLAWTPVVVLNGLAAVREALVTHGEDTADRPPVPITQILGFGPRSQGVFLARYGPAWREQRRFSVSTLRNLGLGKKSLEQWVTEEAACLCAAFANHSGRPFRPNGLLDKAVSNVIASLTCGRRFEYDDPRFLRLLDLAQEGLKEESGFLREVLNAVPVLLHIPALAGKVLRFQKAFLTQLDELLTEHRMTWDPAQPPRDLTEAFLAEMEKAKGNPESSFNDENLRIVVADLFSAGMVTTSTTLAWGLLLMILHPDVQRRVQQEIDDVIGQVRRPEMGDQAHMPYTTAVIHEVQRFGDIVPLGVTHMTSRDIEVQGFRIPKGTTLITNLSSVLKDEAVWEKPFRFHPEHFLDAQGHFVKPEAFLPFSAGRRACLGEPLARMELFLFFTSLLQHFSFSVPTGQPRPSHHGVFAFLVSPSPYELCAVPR
Sequence of Cytochrome P450 2C9 (P11712 whole entry): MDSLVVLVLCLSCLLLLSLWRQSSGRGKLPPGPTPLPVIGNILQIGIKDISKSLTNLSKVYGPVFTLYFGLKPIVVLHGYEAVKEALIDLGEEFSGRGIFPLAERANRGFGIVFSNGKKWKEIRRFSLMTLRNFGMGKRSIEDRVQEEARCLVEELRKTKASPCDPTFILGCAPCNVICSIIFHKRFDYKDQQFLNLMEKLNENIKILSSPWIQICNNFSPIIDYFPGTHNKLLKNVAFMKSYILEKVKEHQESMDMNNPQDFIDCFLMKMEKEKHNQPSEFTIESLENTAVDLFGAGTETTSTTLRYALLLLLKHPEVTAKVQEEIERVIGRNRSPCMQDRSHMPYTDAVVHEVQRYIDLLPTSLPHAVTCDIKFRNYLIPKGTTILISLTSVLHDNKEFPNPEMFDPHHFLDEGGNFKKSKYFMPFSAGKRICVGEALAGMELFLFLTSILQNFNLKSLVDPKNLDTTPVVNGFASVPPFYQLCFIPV

COc1ccccc1CC[C@@H]1CCc2cc([C@H]3CC[C@](N)(CO)C3)ccc2C1 [UDIFITIMOD]
IC50 (Cytochrome P450 2C9): 14 µM | Vd [1]: 16 L/kg | IC50 (Cytochrome P450 2C8): 8.6 µM | IC50 (Cytochrome P450 2B6): 17 µM | clearance [2]: 1.9 mL/min/kg | fraction unbound [3]: < 0.001 | Drug metabolism (Rattus norvegicus): 180 nM | IC50 (Cytochrome P450 2D6): 18 µM | Activity (Mus musculus): Dose-dependent effect | Ratio [4]: 5 | Tmax [5]: 6 h | Tmax [6]: 6 h | Ratio AUC [7]: 1 | IC50 (Cytochrome P450 3A4): 5.5 µM
